Results reported in the CheMixHub viscosity set.
Where “and” joins values, the source holds several entries; their conditions need not be identical. Equal entries are not always repeated. ± gives the uncertainty stated by the source.

Assay: xn = mol fraction of the nth substance listed

OCCCOCCCO + NCCN
viscosity [mPa·s], 101 kPa
Details | 293.15 K | 298.15 K | 303.15 K | 308.15 K | 313.15 K | 318.15 K
x1 = 0.023 | 1.77 ± 0.03 | 1.59 ± 0.03 | 1.34 ± 0.03 | 1.21 ± 0.03 | 1.09 ± 0.03 | 0.991 ± 0.029
x1 = 0.0474 | 2.1 ± 0.03 | 1.86 ± 0.03 | 1.55 ± 0.03 | 1.4 ± 0.03 | 1.24 ± 0.03 | 1.13 ± 0.03
x1 = 0.0733 | 2.51 ± 0.03 | 2.19 ± 0.03 | 1.81 ± 0.03 | 1.62 ± 0.03 | 1.44 ± 0.03 | 1.3 ± 0.03
x1 = 0.1007 | 3.07 ± 0.04 | 2.66 ± 0.03 | 2.16 ± 0.03 | 1.92 ± 0.03 | 1.71 ± 0.03 | 1.53 ± 0.03
x1 = 0.1299 | 3.75 ± 0.04 | 3.23 ± 0.04 | 2.59 ± 0.03 | 2.28 ± 0.03 | 2 ± 0.03 | 1.79 ± 0.03
x1 = 0.1611 | 4.7 ± 0.04 | 4.01 ± 0.04 | 3.16 ± 0.04 | 2.76 ± 0.03 | 2.43 ± 0.03 | –
x1 = 0.1943 | 5.97 ± 0.05 | 4.99 ± 0.05 | 3.9 ± 0.04 | 3.34 ± 0.04 | 2.88 ± 0.04 | –
x1 = 0.23 | 7.72 ± 0.06 | 6.39 ± 0.05 | 4.91 ± 0.05 | 4.16 ± 0.04 | 3.55 ± 0.04 | –
x1 = 0.2682 | 10.2 ± 0.1 | 8.28 ± 0.06 | 6.24 ± 0.05 | 5.22 ± 0.05 | 4.37 ± 0.04 | –
x1 = 0.3094 | 13.7 ± 0.1 | 10.9 ± 0.1 | 8.09 ± 0.06 | 6.65 ± 0.05 | 5.56 ± 0.05 | –
x1 = 0.3538 | 18.7 ± 0.1 | 14.7 ± 0.1 | 10.7 ± 0.1 | 8.62 ± 0.07 | 7 ± 0.06 | –
x1 = 0.4019 | 25.9 ± 0.2 | 19.8 ± 0.1 | 14.1 ± 0.1 | 11.1 ± 0.1 | 8.87 ± 0.07 | –
x1 = 0.4541 | 36.7 ± 0.3 | 26.7 ± 0.2 | 18.6 ± 0.1 | 14.4 ± 0.1 | 11.2 ± 0.1 | –
x1 = 0.5111 | 48.7 ± 0.3 | 35.4 ± 0.2 | 24.1 ± 0.2 | 18.4 ± 0.1 | 14.1 ± 0.1 | –
x1 = 0.5734 | 63.9 ± 0.4 | 45.7 ± 0.3 | 30.6 ± 0.2 | 22.9 ± 0.2 | 17.4 ± 0.1 | –
x1 = 0.6418 | 79.4 ± 0.8 | 56.4 ± 0.3 | 37.3 ± 0.3 | 27.6 ± 0.2 | 20.7 ± 0.1 | –
x1 = 0.7174 | 93.8 ± 1.1 | 66 ± 0.5 | 43.3 ± 0.3 | 31.9 ± 0.2 | 23.7 ± 0.2 | –
x1 = 0.8013 | 105 ± 2 | 73.2 ± 0.6 | 47.9 ± 0.3 | 35.1 ± 0.2 | 26 ± 0.2 | –
x1 = 0.8949 | 112 ± 2 | 77.9 ± 0.7 | 50.6 ± 0.3 | 36.8 ± 0.2 | 27.3 ± 0.2 | –

CC(C)C[C@H](N)C(=O)O + O
Details | viscosity
293.15 K, 100 kPa, x1 = 0.000274 | 1.013 ± 0.061 mPa·s
293.15 K, 100 kPa, x1 = 0.000645 | 1.038 ± 0.12 mPa·s
293.15 K, 100 kPa, x1 = 0.000947 | 1.055 ± 0.12 mPa·s
293.15 K, 100 kPa, x1 = 0.00132 | 1.076 ± 0.12 mPa·s
293.15 K, 100 kPa, x1 = 0.00136 | 1.04 ± 0.061 mPa·s
293.15 K, 100 kPa, x1 = 0.00153 | 1.044 ± 0.061 mPa·s
293.15 K, 100 kPa, x1 = 0.00162 | 1.093 ± 0.12 mPa·s
293.15 K, 100 kPa, x1 = 0.00172 | 1.048 ± 0.061 mPa·s
293.15 K, 100 kPa, x1 = 0.002001 | 1.114 ± 0.12 mPa·s
293.15 K, 100 kPa, x1 = 0.00234 | 1.133 ± 0.12 mPa·s
298.15 K, 100 kPa, x1 = 0.000274 | 0.9 ± 0.06 mPa·s
298.15 K, 100 kPa, x1 = 0.000292 | 0.8985 ± 0.12 mPa·s
298.15 K, 100 kPa, x1 = 0.000459 | 0.905 ± 0.06 mPa·s
298.15 K, 100 kPa, x1 = 0.000806 | 0.913 ± 0.06 mPa·s
298.15 K, 100 kPa, x1 = 0.000995 | 0.917 ± 0.06 mPa·s
298.15 K, 100 kPa, x1 = 0.00117 | 0.921 ± 0.06 mPa·s
298.15 K, 100 kPa, x1 = 0.00132 | 0.9262 ± 0.12 mPa·s
298.15 K, 100 kPa, x1 = 0.00136 | 0.925 ± 0.06 mPa·s
298.15 K, 100 kPa, x1 = 0.00153 | 0.929 ± 0.06 mPa·s
298.15 K, 100 kPa, x1 = 0.00162 | 0.9344 ± 0.12 mPa·s
298.15 K, 100 kPa, x1 = 0.00172 | 0.933 ± 0.061 mPa·s
298.15 K, 100 kPa, x1 = 0.002001 | 0.9447 ± 0.12 mPa·s
298.15 K, 100 kPa, x1 = 0.00234 | 0.9538 ± 0.12 mPa·s
303.15 K, 100 kPa, x1 = 0.000274 | 0.807 ± 0.06 mPa·s
303.15 K, 100 kPa, x1 = 0.000292 | 0.8043 ± 0.12 mPa·s
303.15 K, 100 kPa, x1 = 0.000459 | 0.811 ± 0.06 mPa·s
303.15 K, 100 kPa, x1 = 0.000632 | 0.815 ± 0.06 mPa·s
303.15 K, 100 kPa, x1 = 0.000645 | 0.8124 ± 0.12 mPa·s
303.15 K, 100 kPa, x1 = 0.000806 | 0.819 ± 0.06 mPa·s
303.15 K, 100 kPa, x1 = 0.000947 | 0.8194 ± 0.12 mPa·s
303.15 K, 100 kPa, x1 = 0.000995 | 0.823 ± 0.06 mPa·s
303.15 K, 100 kPa, x1 = 0.00117 | 0.826 ± 0.06 mPa·s
303.15 K, 100 kPa, x1 = 0.00132 | 0.828 ± 0.12 mPa·s
303.15 K, 100 kPa, x1 = 0.00136 | 0.83 ± 0.06 mPa·s
303.15 K, 100 kPa, x1 = 0.00153 | 0.834 ± 0.06 mPa·s
303.15 K, 100 kPa, x1 = 0.00162 | 0.8351 ± 0.12 mPa·s
303.15 K, 100 kPa, x1 = 0.00172 | 0.838 ± 0.06 mPa·s
303.15 K, 100 kPa, x1 = 0.002001 | 0.8439 ± 0.12 mPa·s
303.15 K, 100 kPa, x1 = 0.00234 | 0.8517 ± 0.12 mPa·s
303.15 K, 101 kPa, x1 = 0.0004 | 0.804 ± 0.007 mPa·s
303.15 K, 101 kPa, x1 = 0.0007 | 0.809 ± 0.007 mPa·s
303.15 K, 101 kPa, x1 = 0.001 | 0.817 ± 0.007 mPa·s and 0.827 ± 0.008 mPa·s
303.15 K, 101 kPa, x1 = 0.0018 | 0.834 ± 0.008 mPa·s
305.15 K, 101 kPa, x1 = 0.0003598 | 0.7908 ± 0.0051 mPa·s
305.15 K, 101 kPa, x1 = 0.0007199 | 0.7974 ± 0.0052 mPa·s
305.15 K, 101 kPa, x1 = 0.00108 | 0.8054 ± 0.0052 mPa·s
305.15 K, 101 kPa, x1 = 0.001439 | 0.8126 ± 0.0052 mPa·s
305.15 K, 101 kPa, x1 = 0.001798 | 0.8203 ± 0.0053 mPa·s
305.15 K, 101 kPa, x1 = 0.002157 | 0.8283 ± 0.0053 mPa·s
308.15 K, 100 kPa, x1 = 0.000274 | 0.729 ± 0.06 mPa·s
308.15 K, 100 kPa, x1 = 0.000292 | 0.7252 ± 0.12 mPa·s
308.15 K, 100 kPa, x1 = 0.000632 | 0.736 ± 0.06 mPa·s
308.15 K, 100 kPa, x1 = 0.000645 | 0.7323 ± 0.12 mPa·s
308.15 K, 100 kPa, x1 = 0.000806 | 0.74 ± 0.06 mPa·s
308.15 K, 100 kPa, x1 = 0.000947 | 0.7384 ± 0.12 mPa·s
308.15 K, 100 kPa, x1 = 0.000995 | 0.744 ± 0.06 mPa·s
308.15 K, 100 kPa, x1 = 0.00117 | 0.747 ± 0.06 mPa·s
308.15 K, 100 kPa, x1 = 0.00132 | 0.7458 ± 0.12 mPa·s
308.15 K, 100 kPa, x1 = 0.00153 | 0.755 ± 0.06 mPa·s
308.15 K, 100 kPa, x1 = 0.00162 | 0.752 ± 0.12 mPa·s
308.15 K, 100 kPa, x1 = 0.00172 | 0.758 ± 0.06 mPa·s
308.15 K, 100 kPa, x1 = 0.002001 | 0.7597 ± 0.12 mPa·s
308.15 K, 100 kPa, x1 = 0.00234 | 0.7665 ± 0.12 mPa·s
308.15 K, 101 kPa, x1 = 0.0007 | 0.731 ± 0.007 mPa·s
308.15 K, 101 kPa, x1 = 0.001 | 0.739 ± 0.007 mPa·s and 0.746 ± 0.007 mPa·s
308.15 K, 101 kPa, x1 = 0.0018 | 0.753 ± 0.007 mPa·s
310.15 K, 101 kPa, x1 = 0.0003598 | 0.709 ± 0.0047 mPa·s
310.15 K, 101 kPa, x1 = 0.0007199 | 0.7151 ± 0.0047 mPa·s
310.15 K, 101 kPa, x1 = 0.00108 | 0.7218 ± 0.0048 mPa·s
310.15 K, 101 kPa, x1 = 0.001439 | 0.7272 ± 0.0048 mPa·s
310.15 K, 101 kPa, x1 = 0.001798 | 0.7334 ± 0.0048 mPa·s
310.15 K, 101 kPa, x1 = 0.002157 | 0.7401 ± 0.0049 mPa·s
313.15 K, 100 kPa, x1 = 0.000274 | 0.663 ± 0.06 mPa·s
313.15 K, 100 kPa, x1 = 0.000292 | 0.6581 ± 0.12 mPa·s
313.15 K, 100 kPa, x1 = 0.000459 | 0.667 ± 0.06 mPa·s
313.15 K, 100 kPa, x1 = 0.000632 | 0.67 ± 0.06 mPa·s
313.15 K, 100 kPa, x1 = 0.000645 | 0.6643 ± 0.12 mPa·s
313.15 K, 100 kPa, x1 = 0.000806 | 0.674 ± 0.06 mPa·s
313.15 K, 100 kPa, x1 = 0.000947 | 0.6696 ± 0.12 mPa·s
313.15 K, 100 kPa, x1 = 0.00132 | 0.676 ± 0.12 mPa·s
313.15 K, 100 kPa, x1 = 0.00162 | 0.6814 ± 0.12 mPa·s
313.15 K, 100 kPa, x1 = 0.002001 | 0.688 ± 0.12 mPa·s
313.15 K, 100 kPa, x1 = 0.00234 | 0.694 ± 0.12 mPa·s
313.15 K, 101 kPa, x1 = 0.0004 | 0.658 ± 0.006 mPa·s
313.15 K, 101 kPa, x1 = 0.0007 | 0.663 ± 0.006 mPa·s
313.15 K, 101 kPa, x1 = 0.001 | 0.669 ± 0.006 mPa·s and 0.677 ± 0.006 mPa·s
313.15 K, 101 kPa, x1 = 0.0018 | 0.682 ± 0.006 mPa·s
315.15 K, 101 kPa, x1 = 0.0003598 | 0.6544 ± 0.0045 mPa·s
315.15 K, 101 kPa, x1 = 0.0007199 | 0.6599 ± 0.0045 mPa·s
315.15 K, 101 kPa, x1 = 0.00108 | 0.6653 ± 0.0045 mPa·s
315.15 K, 101 kPa, x1 = 0.001439 | 0.6699 ± 0.0045 mPa·s
315.15 K, 101 kPa, x1 = 0.001798 | 0.6752 ± 0.0046 mPa·s
315.15 K, 101 kPa, x1 = 0.002157 | 0.6803 ± 0.0046 mPa·s
318.15 K, 101 kPa, x1 = 0.0007 | 0.605 ± 0.006 mPa·s
318.15 K, 101 kPa, x1 = 0.001 | 0.611 ± 0.006 mPa·s and 0.618 ± 0.006 mPa·s
318.15 K, 101 kPa, x1 = 0.0018 | 0.622 ± 0.006 mPa·s
